Measurements published in patent EP4501917A1, “3,4-DIHYDROQUINOXALINE-2-CARBOXIMIDE DERIVATIVE COMPOUND AND PHARMACEUTICAL COMPOSITION COMPRISING SAME FOR PREVENTING OR TREATING CANCER DISEASE” (Daegu-Gyeongbuk Medical Innovation Foundation, priority 2022, dated 2023).

Assays:
HDAC4 = HDAC4 (Homo sapiens, UniProt P56524); assay: Selective HDAC inhibition, HDAC Fluorogenic assay kit; settings: read-out: HDAC4 enzyme activity (%)
Procedure: (§1) For analysis, HDAC substrate 3 was diluted in buffer to a concentration of 200 µM and used in HDAC 1, 2, 3, 6, and 10 assays, HDAC substrate 2A was diluted in buffer to a concentration of 200 µM and used in HDAC 4, 7, 9, and 11 assays, HDAC substrate 2A was diluted in buffer to a concentration of 20 µM and used in HDAC 8 assays. For the HDAC 11 assay, a dedicated buffer included in the kit was used separately, and the same buffer was used for the remaining assays. The compound of the Example was diluted to 1 mM (1% DMSO concentration) using DMSO to obtain a final concentration of 10 µM, and prepared by diluting 1/10 with assay buffer. In a 96-well black round-bottom plate, 5 µL of the diluted compound of the Example, 5 µL of the diluted HDAC substrate, 5 µL of BSA (1 mg/ml), 5 µL of the HDAC enzyme diluted to the appropriate concentration, and 30 µL of assay buffer were added, and the enzyme reaction was performed at 37°C for 30 minutes. […] Afterwards, 50 µL of 2X HDAC developer was added to each well. After reacting for 15 minutes at room temperature, the fluorescence values at excitation wavelengths of 350-380 nm and emission wavelengths of 440-460 nm were measured using a microplate reader (Synergy Neo).

[1] = Body weight during drug administration, liver cancer model; format: in vivo, nude mice; settings: 50 mg/kg, during the drug administration period, Huh-7 model, FIG. 7D; result in words
Procedure: In addition, a liver cancer model was established by subcutaneously transplanting Huh-7 cell lines into nude mice. After establishing the liver cancer model, the mice were divided into two groups (group 1: vehicle administration group, group 2: 50 mg/kg Example 27 compound administration group). The drug was administered once a day for 12 times. To evaluate therapeutic efficacy, tumor volume was measured before drug administration and on days 4, 7, 10, 13, and 15 after drug administration. Tumor volume (mm^3) was calculated as follows (tumor volume (mm^3) = (A X B^2)/2, where A = tumor long axis, B = tumor short axis). Body weight was measured before administration and on days 4, 7, 10, 13, and 15 after drug administration during the drug administration period. Tumor was excised on day 15 after drug treatment and body weight was measured.

HDAC8 [2] = target: T1, HDAC8 (Homo sapiens, UniProt Q9BY41); assay: Selective HDAC inhibition, HDAC Fluorogenic assay kit; format: biochemical
T1 construct: purchased BPS bioscience
T1 sequence (Q9BY41 1-377): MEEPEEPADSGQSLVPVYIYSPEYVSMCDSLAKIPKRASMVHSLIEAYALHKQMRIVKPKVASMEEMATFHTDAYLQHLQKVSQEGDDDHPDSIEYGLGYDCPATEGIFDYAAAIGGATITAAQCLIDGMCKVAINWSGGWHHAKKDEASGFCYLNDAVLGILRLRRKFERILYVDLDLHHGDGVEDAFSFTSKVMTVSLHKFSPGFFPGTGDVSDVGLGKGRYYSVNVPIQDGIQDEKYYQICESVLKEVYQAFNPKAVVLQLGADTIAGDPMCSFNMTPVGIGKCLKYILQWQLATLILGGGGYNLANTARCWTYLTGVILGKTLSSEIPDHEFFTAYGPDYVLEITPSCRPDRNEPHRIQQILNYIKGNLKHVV
Procedure: as §1

HDAC8 [3] = target: T1, HDAC8; assay: HDAC8 inhibitory activity analysis (in vitro), RFU analysis, HDAC Fluorogenic assay kit; format: biochemical
Procedure: The compound of the Example was diluted to 1 mM (1% DMSO concentration) using DMSO to obtain a final concentration of 10 µM, and prepared by diluting 1/10 with assay buffer. In a 96-well black round-bottom plate, 5 µL of the diluted compound of the Example, 5 µL of the diluted HDAC substrate 2A, 5 µL of BSA (1 mg/mL), 5 µL of the HDAC8 enzyme diluted to an appropriate concentration, and 30 µL of assay buffer were added, and the enzyme reaction was performed at 37°C for 30 minutes. […] Afterwards, 50 µL of 2X HDAC developer was added to each well. After reacting for 15 minutes at room temperature, the fluorescence values at excitation wavelengths of 350-380 nm and emission wavelengths of 440-460 nm were measured using a microplate reader (Synergy Neo).

HDAC11 = target: T2, HDAC11 (Homo sapiens, UniProt Q96DB2); assay: Selective HDAC inhibition, HDAC Fluorogenic assay kit; settings: read-out: HDAC11 enzyme activity (%)
T2 sequence (Q96DB2 1-347): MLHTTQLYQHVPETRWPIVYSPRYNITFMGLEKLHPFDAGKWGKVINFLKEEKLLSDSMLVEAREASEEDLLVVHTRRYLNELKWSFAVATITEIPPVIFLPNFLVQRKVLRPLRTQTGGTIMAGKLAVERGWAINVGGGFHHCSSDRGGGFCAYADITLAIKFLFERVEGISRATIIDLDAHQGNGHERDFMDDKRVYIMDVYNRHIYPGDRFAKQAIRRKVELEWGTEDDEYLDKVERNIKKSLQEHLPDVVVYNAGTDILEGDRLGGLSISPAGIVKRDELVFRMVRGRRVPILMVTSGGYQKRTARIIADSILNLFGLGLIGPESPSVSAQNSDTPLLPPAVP
Procedure: as §1

[4] = Body weight during drug administration, prostate cancer model; format: in vivo, nude mice; settings: 50 mg/kg, during the drug administration period, PC-3 model, FIG. 5; result in words
Procedure: A prostate cancer model was established by subcutaneously transplanting PC-3 cell lines into nude mice, and the mice were divided into two groups (group 1: vehicle administration group (10% DSMO, 30% PEG400, 60% DW), group 2: 50 mg/kg Example 27 compound administration group). The drug was administered orally once a day for 12 times. To evaluate the therapeutic efficacy, tumors were […] before drug administration and on days 3, 6, 8, 10, 12, and 14 after drug administration, and tumor volumes were measured. Tumor volume (mm^3) was calculated as follows (tumor volume (mm^3) = (A X B^2)/2, where A = tumor long axis, B = tumor short axis), and the results are shown in FIG. 2.

[5] = tested on: PC-3 prostate cancer cells; assay: Prostate cancer cell growth inhibition, CCK-8 assay; format: cell-based, human; settings: PC-3 cells, result in words
Procedure: PC-3, a human-derived prostate cancer cell line, was cultured with RPMI1640 (10% fetal bovine serum, 1% Penicillin Streptomycin) culture medium at 37°C, 5% CO2 condition. All cells in the experiment were subcultured when they reached a confluency of approximately 80% to 90%, and only cells that had not passed 20 passages were used.
After culturing, 10 µL CCK-8 reagent was added and the absorbance was measured after 1 hour. The absorbance was measured at 450 nm using a microplate reader [BMG Labtech (Offenburg, Germany)].

HDAC9 = HDAC9 (Homo sapiens, UniProt Q9UKV0); assay: Selective HDAC inhibition, HDAC Fluorogenic assay kit; settings: read-out: HDAC9 enzyme activity (%)
HDAC9, sequence (Q9UKV0 whole entry): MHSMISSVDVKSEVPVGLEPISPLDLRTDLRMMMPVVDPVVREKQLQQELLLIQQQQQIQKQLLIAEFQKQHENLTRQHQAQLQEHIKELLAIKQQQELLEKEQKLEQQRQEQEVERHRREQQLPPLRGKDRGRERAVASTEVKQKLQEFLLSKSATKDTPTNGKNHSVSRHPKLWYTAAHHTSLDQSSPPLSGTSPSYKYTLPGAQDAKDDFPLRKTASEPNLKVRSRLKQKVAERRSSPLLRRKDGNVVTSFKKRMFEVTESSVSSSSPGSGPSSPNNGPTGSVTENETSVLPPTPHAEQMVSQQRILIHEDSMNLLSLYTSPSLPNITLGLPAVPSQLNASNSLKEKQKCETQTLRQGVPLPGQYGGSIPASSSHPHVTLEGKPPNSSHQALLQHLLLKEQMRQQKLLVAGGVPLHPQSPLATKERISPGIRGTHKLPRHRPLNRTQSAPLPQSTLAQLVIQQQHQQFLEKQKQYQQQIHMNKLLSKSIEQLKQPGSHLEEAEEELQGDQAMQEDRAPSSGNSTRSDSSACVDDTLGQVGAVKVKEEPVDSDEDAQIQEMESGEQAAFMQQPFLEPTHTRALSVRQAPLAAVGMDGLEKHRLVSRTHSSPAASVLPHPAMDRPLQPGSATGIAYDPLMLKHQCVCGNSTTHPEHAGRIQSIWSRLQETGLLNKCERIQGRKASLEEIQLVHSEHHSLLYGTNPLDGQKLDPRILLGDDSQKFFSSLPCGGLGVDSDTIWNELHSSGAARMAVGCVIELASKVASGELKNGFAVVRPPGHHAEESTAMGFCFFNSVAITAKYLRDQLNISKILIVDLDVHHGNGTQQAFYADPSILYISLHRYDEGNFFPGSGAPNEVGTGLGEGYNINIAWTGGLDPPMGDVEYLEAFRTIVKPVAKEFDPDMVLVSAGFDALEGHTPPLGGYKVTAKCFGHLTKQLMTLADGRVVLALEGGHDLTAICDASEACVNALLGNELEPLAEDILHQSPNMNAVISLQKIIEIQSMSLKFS
Procedure: as §1

Liver cancer cells Huh-7 = assay: Liver cancer cell growth inhibition, CellTiter-Glo Luminescent Cell Viability Assay; format: cell-based; settings: Huh-7 cells, various concentrations, day 1, FIG. 6; result in words
Procedure: In addition, an analysis of liver cancer growth inhibitory activity was performed. Liver cancer cells Huh-7 cells were dispensed in a 96-well plate at 1 × 10^4 cells/ml, and after 20 hours, PCI34051, Example 27, and Example 35 were added at various concentrations, and cultured for 24 and 48 hours at 37°C in a 5% CO2 atmosphere. After culturing, 100 µl CellTiter-Glo Luminescent Cell Viability Assay reagent was added and the luminescence signal was measured after 0.5-1 hour. The luminescence signal was measured using IVIS [PerkinElmer, (Waltham, USA)].

HDAC4, sequence (P56524 whole entry): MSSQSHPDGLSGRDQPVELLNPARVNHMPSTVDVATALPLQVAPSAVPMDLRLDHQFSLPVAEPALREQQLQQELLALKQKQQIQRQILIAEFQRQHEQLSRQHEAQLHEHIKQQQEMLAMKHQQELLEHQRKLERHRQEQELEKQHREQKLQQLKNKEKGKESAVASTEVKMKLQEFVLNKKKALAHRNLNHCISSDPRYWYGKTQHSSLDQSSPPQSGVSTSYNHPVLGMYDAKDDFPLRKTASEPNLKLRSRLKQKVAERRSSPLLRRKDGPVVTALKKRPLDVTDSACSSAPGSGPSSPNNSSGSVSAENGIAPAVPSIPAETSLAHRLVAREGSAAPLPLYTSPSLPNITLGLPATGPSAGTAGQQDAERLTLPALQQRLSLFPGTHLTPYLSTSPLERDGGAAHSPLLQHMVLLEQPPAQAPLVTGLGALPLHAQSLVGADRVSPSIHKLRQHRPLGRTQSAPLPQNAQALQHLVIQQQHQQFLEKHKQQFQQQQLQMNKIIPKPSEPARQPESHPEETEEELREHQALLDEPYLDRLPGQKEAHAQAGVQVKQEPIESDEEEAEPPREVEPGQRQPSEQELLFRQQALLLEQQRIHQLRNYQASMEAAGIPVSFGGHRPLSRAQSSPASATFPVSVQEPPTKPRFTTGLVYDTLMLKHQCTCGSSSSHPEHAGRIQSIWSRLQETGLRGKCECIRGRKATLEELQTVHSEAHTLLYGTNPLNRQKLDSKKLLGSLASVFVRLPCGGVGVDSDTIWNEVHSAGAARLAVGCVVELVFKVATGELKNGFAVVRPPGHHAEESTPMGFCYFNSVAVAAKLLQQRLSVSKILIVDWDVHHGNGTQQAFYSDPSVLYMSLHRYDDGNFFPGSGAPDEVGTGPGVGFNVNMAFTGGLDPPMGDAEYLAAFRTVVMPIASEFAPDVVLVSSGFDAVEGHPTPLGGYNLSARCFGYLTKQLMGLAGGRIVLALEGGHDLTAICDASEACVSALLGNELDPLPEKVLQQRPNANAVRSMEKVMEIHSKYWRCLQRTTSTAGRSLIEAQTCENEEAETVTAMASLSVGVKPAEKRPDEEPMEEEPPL

remaining activity at 10 µM (HDAC4): 98.2%
remaining activity at 10 µM (HDAC8 [2]; final concentration 10 µM, HDAC substrate 2A 20 µM, positive control (1% DMSO) set to 100, read-out: HDAC8 enzyme activity (%)): 14.1%
RFU (%) (HDAC8 [3]; compound final concentration 10 µM, HDAC substrate 2A 20 µM, positive control (1% DMSO) set to 100, lower = more inhibition): 7.62%
remaining activity at 10 µM (HDAC11): 97.3%
remaining activity at 10 µM (HDAC9): 66.5%
SMILES: Cc1cc2nc(C(=O)NCCc3c[nH]c4ccc(O)cc34)c(=O)n(C[C@H](O)[C@H](O)[C@H](O)CO)c2cc1C [Example 27, N-(2-(5-hydroxy-1H-indol-3-yl)ethyl)-6,7-dimethyl-3-oxo-4-((2S,3S,4R)-2,3,4,5-tetrahydroxypentyl)-3,4-dihydroquinoxaline-2-carboxamide]
body weight [1]: No rapid weight loss was observed
selective inhibitory effect on HDAC8 (HDAC8 [2]; result in words, HDAC8 versus HDAC1, 2, 3, 4, 6, 7, 9, 10, 11, summary of Table 3): selective and excellent inhibitory activity only against HDAC8
inhibitory activity against HDAC8 (HDAC8 [3]; result in words, summary of Table 2, 10 µM): inhibitory activity similar to TSA or SAHA
body weight of the mice [4]: no rapid weight loss was confirmed
cancer cell viability inhibition rate ([5]; compared with PCI-34051, FIG. 1): superior to that of PCI-34051
cell viability ([5]; various concentrations, 24 hours and 48 hours, FIG. 1): effectively reduced the viability of prostate cancer cells in a concentration- and time-dependent manner
cell viability (Liver cancer cells Huh-7): concentration-dependent inhibition of cancer cell viability
